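Test compounds were applied to cells in 96-well plates for 48 hours at 5 doses. Definition used: TGI = concentration required for complete inhibition of growth.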
How the values were obtained:
Assay in all cases: NCI tumour cell line growth inhibition, 48 h
786-0 renal = tested on: 786-0 renal
A498 renal = tested on: A498 renal
A549 NSCLC = tested on: A549 NSCLC
CAKI-1 renal = tested on: CAKI-1 renal
CCRF-CEM leukemia = tested on: CCRF-CEM leukemia
COLO 205 colon = tested on: COLO 205 colon
DLD-1 colon = tested on: DLD-1 colon
DMS 114 small cell lung = tested on: DMS 114 small cell lung
DMS 273 small cell lung = tested on: DMS 273 small cell lung
EKVX NSCLC = tested on: EKVX NSCLC
HCC-2998 colon = tested on: HCC-2998 colon
HCT-116 colon = tested on: HCT-116 colon
HCT-15 colon = tested on: HCT-15 colon
HL-60(TB) leukemia = tested on: HL-60(TB) leukemia
HOP-62 NSCLC = tested on: HOP-62 NSCLC
HOP-92 NSCLC = tested on: HOP-92 NSCLC
HT29 colon = tested on: HT29 colon
IGROV1 ovarian = tested on: IGROV1 ovarian
K-562 leukemia = tested on: K-562 leukemia
KM12 colon = tested on: KM12 colon
KM20L2 colon = tested on: KM20L2 colon
LOX IMVI melanoma = tested on: LOX IMVI melanoma
LXFL 529 NSCLC = tested on: LXFL 529 NSCLC
M14 melanoma = tested on: M14 melanoma
M19-MEL melanoma = tested on: M19-MEL melanoma
MALME-3M melanoma = tested on: MALME-3M melanoma
MOLT-4 leukemia = tested on: MOLT-4 leukemia
NCI-H226 lung = tested on: NCI-H226 lung
NCI-H23 lung = tested on: NCI-H23 lung
NCI-H460 lung = tested on: NCI-H460 lung
NCI-H522 lung = tested on: NCI-H522 lung
OVCAR-3 ovarian = tested on: OVCAR-3 ovarian
OVCAR-4 ovarian = tested on: OVCAR-4 ovarian
OVCAR-5 ovarian = tested on: OVCAR-5 ovarian
OVCAR-8 ovarian = tested on: OVCAR-8 ovarian
RPMI-8226 leukemia = tested on: RPMI-8226 leukemia
RXF 393 renal = tested on: RXF 393 renal
SF-268 CNS = tested on: SF-268 CNS
SF-295 CNS = tested on: SF-295 CNS
SF-539 CNS = tested on: SF-539 CNS
SK-MEL-5 melanoma = tested on: SK-MEL-5 melanoma
SK-OV-3 ovarian = tested on: SK-OV-3 ovarian
SN12C renal = tested on: SN12C renal
SNB-19 CNS = tested on: SNB-19 CNS
SNB-75 CNS = tested on: SNB-75 CNS
SNB-78 CNS = tested on: SNB-78 CNS
SR leukemia = tested on: SR leukemia
SW-620 colon = tested on: SW-620 colon
TK-10 renal = tested on: TK-10 renal
U251 CNS = tested on: U251 CNS
UACC-257 melanoma = tested on: UACC-257 melanoma
UACC-62 melanoma = tested on: UACC-62 melanoma
UO-31 renal = tested on: UO-31 renal
XF 498 CNS = tested on: XF 498 CNS
ACHN renal = tested on: ACHN renal
HOP-18 NSCLC = tested on: HOP-18 NSCLC
SK-MEL-2 melanoma = tested on: SK-MEL-2 melanoma
SK-MEL-28 melanoma = tested on: SK-MEL-28 melanoma

Structure (SMILES): COC(=O)c1c(C(=O)OC)c(-c2ccccc2)n(-c2ccccc2)c(=O)c1-c1ccccc1
- TGI (786-0 renal): > 100 µM
- TGI (A498 renal): > 100 µM
- TGI (A549 NSCLC): > 100 µM
- TGI (CAKI-1 renal): > 100 µM
- TGI (CCRF-CEM leukemia): > 100 µM
- TGI (COLO 205 colon): > 100 µM
- TGI (DLD-1 colon): > 100 µM
- TGI (DMS 114 small cell lung): > 100 µM
- TGI (DMS 273 small cell lung): > 100 µM
- TGI (EKVX NSCLC): > 100 µM
- TGI (HCC-2998 colon): > 100 µM
- TGI (HCT-116 colon): > 100 µM
- TGI (HCT-15 colon): > 100 µM
- TGI (HL-60(TB) leukemia): > 100 µM
- TGI (HOP-62 NSCLC): > 100 µM
- TGI (HOP-92 NSCLC): 83 µM
- TGI (HT29 colon): > 100 µM
- TGI (IGROV1 ovarian): > 100 µM
- TGI (K-562 leukemia): > 100 µM
- TGI (KM12 colon): > 100 µM
- TGI (KM20L2 colon): > 100 µM
- TGI (LOX IMVI melanoma): > 100 µM
- TGI (LXFL 529 NSCLC): > 100 µM
- TGI (M14 melanoma): > 100 µM
- TGI (M19-MEL melanoma): > 100 µM
- TGI (MALME-3M melanoma): > 100 µM
- TGI (MOLT-4 leukemia): > 100 µM
- TGI (NCI-H226 lung): > 100 µM
- TGI (NCI-H23 lung): > 100 µM
- TGI (NCI-H460 lung): > 100 µM
- TGI (NCI-H522 lung): > 100 µM
- TGI (OVCAR-3 ovarian): > 100 µM
- TGI (OVCAR-4 ovarian): 78.1 µM
- TGI (OVCAR-5 ovarian): > 100 µM
- TGI (OVCAR-8 ovarian): > 100 µM
- TGI (RPMI-8226 leukemia): > 100 µM
- TGI (RXF 393 renal): 60.8 µM
- TGI (SF-268 CNS): > 100 µM
- TGI (SF-295 CNS): > 100 µM
- TGI (SF-539 CNS): > 100 µM
- TGI (SK-MEL-5 melanoma): > 100 µM
- TGI (SK-OV-3 ovarian): > 100 µM
- TGI (SN12C renal): > 100 µM
- TGI (SNB-19 CNS): > 100 µM
- TGI (SNB-75 CNS): 64 µM
- TGI (SNB-78 CNS): > 100 µM
- TGI (SR leukemia): > 100 µM
- TGI (SW-620 colon): > 100 µM
- TGI (TK-10 renal): > 100 µM
- TGI (U251 CNS): > 100 µM
- TGI (UACC-257 melanoma): > 100 µM
- TGI (UACC-62 melanoma): > 100 µM
- TGI (UO-31 renal): > 100 µM
- TGI (XF 498 CNS): 68.8 µM

Structure (SMILES): CCOc1ccc(C2=NN(CC)C(=O)C(C3C(=O)N(c4ccccc4)N=C3C)C2)cc1 (centres undefined)
- TGI (786-0 renal): > 100 µM
- TGI (A498 renal): > 100 µM
- TGI (A549 NSCLC): > 100 µM
- TGI (ACHN renal): > 100 µM
- TGI (CAKI-1 renal): > 100 µM
- TGI (CCRF-CEM leukemia): > 100 µM
- TGI (COLO 205 colon): > 100 µM
- TGI (DLD-1 colon): > 100 µM
- TGI (DMS 114 small cell lung): > 100 µM
- TGI (DMS 273 small cell lung): > 100 µM
- TGI (EKVX NSCLC): > 100 µM
- TGI (HCC-2998 colon): > 100 µM
- TGI (HCT-116 colon): > 100 µM
- TGI (HCT-15 colon): > 100 µM
- TGI (HL-60(TB) leukemia): > 100 µM
- TGI (HOP-18 NSCLC): > 100 µM
- TGI (HOP-62 NSCLC): > 100 µM
- TGI (HOP-92 NSCLC): > 100 µM
- TGI (HT29 colon): > 100 µM
- TGI (IGROV1 ovarian): > 100 µM
- TGI (K-562 leukemia): > 100 µM
- TGI (KM12 colon): > 100 µM
- TGI (KM20L2 colon): > 100 µM
- TGI (LOX IMVI melanoma): > 100 µM
- TGI (LXFL 529 NSCLC): > 100 µM
- TGI (M14 melanoma): > 100 µM
- TGI (M19-MEL melanoma): > 100 µM
- TGI (MALME-3M melanoma): > 100 µM
- TGI (MOLT-4 leukemia): > 100 µM
- TGI (NCI-H226 lung): > 100 µM
- TGI (NCI-H23 lung): > 100 µM
- TGI (NCI-H460 lung): > 100 µM
- TGI (NCI-H522 lung): > 100 µM
- TGI (OVCAR-3 ovarian): > 100 µM
- TGI (OVCAR-4 ovarian): > 100 µM
- TGI (OVCAR-5 ovarian): > 100 µM
- TGI (OVCAR-8 ovarian): > 100 µM
- TGI (RPMI-8226 leukemia): > 100 µM
- TGI (RXF 393 renal): > 100 µM
- TGI (SF-268 CNS): > 100 µM
- TGI (SF-295 CNS): > 100 µM
- TGI (SF-539 CNS): > 100 µM
- TGI (SK-MEL-2 melanoma): > 100 µM
- TGI (SK-MEL-28 melanoma): > 100 µM
- TGI (SK-MEL-5 melanoma): > 100 µM
- TGI (SK-OV-3 ovarian): > 100 µM
- TGI (SNB-19 CNS): > 100 µM
- TGI (SNB-78 CNS): > 100 µM
- TGI (SW-620 colon): > 100 µM
- TGI (TK-10 renal): > 100 µM
- TGI (U251 CNS): > 100 µM
- TGI (UACC-257 melanoma): > 100 µM
- TGI (UACC-62 melanoma): > 100 µM
- TGI (UO-31 renal): > 100 µM
- TGI (XF 498 CNS): > 100 µM
